Like-named read-outs stand apart in the source and are kept apart here.
Legend:
Assay type in all cases: cell-based, human
[1] = tested on: HCC38 breast cancer cells; assay: MTS cell viability assay, HCC38; conditions: read-out: EC50 (effective concentration that resulted in 50% cell viability)
Description: (§1) Human breast (HCC38, MCF-7, MDA-MB-231, SK-BR-3, T-47D, and ZR-75-1), lung (A549 and H520), and prostate (DU145 and PC-3) cancer cell lines were obtained from American Culture Type Collection (ATCC). The HCC38, MCF-7, MDA-MB-231, SK-BR-3, T-47D, ZR-75-1, and A549 cells were grown in MEM supplemented with 10% FBS, 25 mM HEPES buffer (pH 7.4), penicillin (100 U/mL), and streptomycin (100 μg/mL). The H520, DU145, and PC-3 cell lines were grown in RPMI-1640 supplemented with 10% FBS, 25 mM HEPES buffer (pH 7.4), penicillin (100 U/mL), and streptomycin (100 μg/mL). All cell lines were maintained at 37° C. in a humidified, 5% CO2 atmosphere.
(§2) Cells were cultured at a density of 2-3.5×10^3 cells per well in flat bottomed 96-well plates in 100 μL of complete growth medium and incubated for 2 days to reach ˜50% confluence. The cells were then treated with solvent or the appropriate drugs (CDDP stock was dissolved in 0.15 M NaCl, carboplatin stock was dissolved in 5% glucose, synthesized Pt(IV) complexes were dissolved in DMSO) for 1 hour, washed three times with 100 μL PBS, and incubated in 100 μL of fresh medium. After 2 days, the medium was replaced with 120 μL of medium containing CellTiter 96® Aqueous One Solution Reagent (MTS reagent) (Promega, Madison, Wis.). The cells were incubated at 37° C. for 4 hours and the cell viability was determined by measuring the absorbance at 490 nm using a Tecan Infinite M1000 microplate reader. The 48 h treatment was done in a similar manner, except the cells were not washed after treatment and the MTS reagent was immediately added. Viability of treated groups was calculated as a percent of control and graphed with GraphPad Prism.
(§3) The anti-proliferative activities of Pt(IV) complexes were determined in two lung (A549 and H520), two prostate (DU145 and PC-3), and six breast (HCC38, MCF-7, MDA-MB-231, SK-BR-3, T-47D, and ZR-75-1) cancer cell lines. The cells were treated with increasing concentrations of cisplatin (CDDP), carboplatin, or the Pt(IV) complexes for 1 or 48 hours, and the viability was measured using an MTS colorimetric cell proliferation assay. Graphs of the results are shown for DU145 (FIG. 8A), PC-3 (FIG. 8B), SK-BR-3 (FIG. 8C), ZR-75-1 (FIG. 8D), A549 (FIG. 8E), and MCF-7 (FIG. 8F).

[2] = tested on: ZR-75-1 breast cancer cells; assay: MTS cell viability assay, ZR-75-1; conditions: read-out: EC50 (effective concentration that resulted in 50% cell viability)
Description: as §1, §2, §3

[3] = tested on: SK-BR-3 breast cancer cells; assay: MTS cell viability assay, SK-BR-3; conditions: read-out: EC50 (effective concentration that resulted in 50% cell viability)
Description: as §1, §2, §3
(§4) The anti-proliferative activities of certain Pt(II) complexes were determined in DU145, PC-3, and SK-BR-3 cells. The cells were treated with increasing concentrations of cisplatin (CDDP) or the Pt(II) complexes for 1 or 48 hours, and the viability was measured using an MTS colorimetric cell proliferation assay.

A549 lung cancer cells = assay: MTS cell viability assay, A549; conditions: for EC50: read-out: EC50 (effective concentration that resulted in 50% cell viability); for effect on cell viability (in words): A549, 48 hour treatment (FIG. 8E)
Description: as §1, §2, §3

[4] = tested on: DU145 prostate cancer cells; conditions: for EC50: read-out: EC50 (effective concentration that resulted in 50% cell viability)
Description: as §1, §2, §3, §4

[5] = tested on: T-47D breast cancer cells; assay: MTS cell viability assay, T-47D
Description: as §1, §2, §3

[6] = tested on: PC-3 prostate cancer cells; assay: MTS cell viability assay, PC-3; conditions: read-out: EC50 (effective concentration that resulted in 50% cell viability)
Description: as §1, §2, §3, §4

[7] = tested on: MDA-MB-231 breast cancer cells; assay: MTS cell viability assay, MDA-MB-231; conditions: read-out: EC50 (effective concentration that resulted in 50% cell viability)
Description: as §1, §2, §3

[8] = tested on: MCF-7 breast cancer cells; assay: MTS cell viability assay, MCF-7; conditions: for EC50: read-out: EC50 (effective concentration that resulted in 50% cell viability); for effect on cell viability (in words): MCF-7, 48 hour treatment (FIG. 8F)
Description: as §1, §2, §3

H520 lung cancer cells = assay: MTS cell viability assay, H520; conditions: read-out: EC50 (effective concentration that resulted in 50% cell viability)
Description: as §1, §2, §3

[9] = ZR-75-1, 1 h treatment, Table 3
[10] = SK-BR-3, 1 h treatment, Table 3
[11] = DU145, 1 hour treatment (FIG. 8A, top), up to 1 mM carboplatin, 100 μM Pt(IV)-1C, 50 μM Pt(IV)-2C
[12] = 1 h treatment, Table 3, read-out: EC50 (effective concentration that resulted in 50% cell viability)
[13] = 48 h, Table 5, read-out: EC50 (effective concentration that resulted in 50% cell viability)
[14] = MDA-MB-231, 1 h treatment, Table 3

Row | Molecule | EC50 ([1]; HCC38, 1 h treatment, Table 3) | EC50 ([1]; HCC38, 48 h, Table 5) | EC50 [2, 9] | EC50 ([2]; ZR-75-1, 48 h, Table 5) | EC50 [3, 10] | EC50 ([3]; SK-BR-3, 48 h, Table 5) | EC50 (A549 lung cancer cells; A549, 1 h treatment, Table 3) | EC50 (A549 lung cancer cells; A549, 48 h, Table 5) | effect on cell viability (in words) (A549 lung cancer cells) | effect on cell viability (in words) [4, 11] | EC50 ([4]; DU145, 1 h treatment, Table 3) | EC50 ([4]; DU145, 48 h, Table 5) | EC50 [5, 12] | EC50 [5, 13] | EC50 ([6]; PC-3, 1 h treatment, Table 3) | EC50 ([6]; PC-3, 48 h, Table 5) | EC50 [7, 14] | EC50 ([7]; MDA-MB-231, 48 h, Table 5) | EC50 ([8]; MCF-7, 1 h treatment, Table 3) | EC50 ([8]; MCF-7, 48 h, Table 5) | also measured
1 | [Pt(IV)Cl2(OAc)2(4,4′-dimethoxy-2,2′-bipyridine)] [Pt(IV)-1C] | > 100 µM | > 100 µM | > 100 µM | > 100 µM | > 100 µM | 80 ± 20 µM | > 100 µM | > 100 µM | had no effect | did not have any effects | > 100 µM | 80 ± 20 µM | > 100 µM | 32 ± 0.5 µM | > 100 µM | > 100 µM | > 100 µM | > 100 µM | > 100 µM | > 100 µM | effect on cell viability (in words) ([4]; DU145, 48 hours treatment (FIG. 8A, bottom)): more effective than carboplatin; effect on cell viability (in words) [8]: had no effect; EC50 (H520 lung cancer cells; H520, 1 h treatment, Table 3): > 100 µM; EC50 (H520 lung cancer cells; H520, 48 h, Table 5): > 100 µM
2 | CCCCCOc1ccnc(-c2cc(OCCCCC)ccn2)c1.[Cl][Pt][Cl] [Pt(II)-5C] |  |  |  |  |  |  |  |  |  |  |  |  |  |  |  |  |  |  |  |  | EC50 ([1]; HCC38, 1 h treatment, Table 2): 13 ± 5 µM; EC50 ([1]; HCC38, 48 h treatment, Table 4): 10 ± 2 µM; EC50 ([2]; ZR-75-1, 1 h treatment, Table 2): 8 ± 3 µM; EC50 ([2]; ZR-75-1, 48 h treatment, Table 4): 6.6 ± 0.7 µM; EC50 ([3]; SK-BR-3, 1 h treatment, Table 2): 2.8 ± 0.8 µM; EC50 ([3]; SK-BR-3, 48 h treatment, Table 4): 2.4 ± 0.4 µM; EC50 (A549 lung cancer cells; A549, 1 h treatment, Table 2): 18 ± 1 µM; EC50 (A549 lung cancer cells; A549, 48 h treatment, Table 4): 16.5 ± 0.5 µM; EC50 ([4]; DU145, 1 h treatment, Table 2): 8 ± 2 µM; EC50 ([4]; DU145, 48 h treatment, Table 4): 6 ± 0.7 µM; EC50 ([5]; 1 h treatment, Table 2, read-out: EC50 (effective concentration that resulted in 50% cell viability)): 9 ± 3 µM; EC50 ([5]; 48 h treatment, Table 4, read-out: EC50 (effective concentration that resulted in 50% cell viability)): 3 ± 1 µM; EC50 ([6]; PC-3, 1 h treatment, Table 2): 7 ± 1 µM; EC50 ([6]; PC-3, 48 h treatment, Table 4): 7.3 ± 0.7 µM; EC50 ([7]; MDA-MB-231, 1 h treatment, Table 2): 4 ± 2 µM; EC50 ([7]; MDA-MB-231, 48 h treatment, Table 4): 4.1 ± 0.2 µM; EC50 ([8]; MCF-7, 1 h treatment, Table 2): 21 ± 5 µM; EC50 ([8]; MCF-7, 48 h treatment, Table 4): 15 ± 7 µM; EC50 (H520 lung cancer cells; H520, 1 h treatment, Table 2): 23 ± 5 µM; EC50 (H520 lung cancer cells; H520, 48 h treatment, Table 4): 17 ± 3 µM
3 | CC(=O)[O][Pt]([Cl])([Cl])[O]C(C)=O.CCOc1ccnc(-c2cc(OCC)ccn2)c1 [Pt(IV)-2C, [Pt(IV)Cl2(OAc)2(4,4′-diethoxy-2,2′-bipyridine)]] | 93 ± 10 µM | 30 ± 9 µM | > 50 µM | 17 ± 7 µM | 40 ± 10 µM | 8.3 ± 0.7 µM | > 50 µM | > 50 µM | had no effect | did not have any effects | > 50 µM | 10 ± 4 µM | 46 ± 8 µM | 0.95 ± 0.03 µM | > 50 µM | 20 ± 2 µM | > 100 µM | 28 ± 7 µM | > 100 µM | > 100 µM | effect on cell viability (in words) [8]: had no effect; EC50 (H520 lung cancer cells; H520, 1 h treatment, Table 3): > 100 µM; EC50 (H520 lung cancer cells; H520, 48 h, Table 5): 61 ± 2 µM

Reference: US10316050B2, “PT (IV) complexes containing 4,4′-disubstituted-2,2′-bipyridyl and their use in cancer therapy” (THE BOARD OF REGENTS OF THE NEVADA SYSTEM OF HIGHER …, priority 2014, dated 2019)
